Data set [1] can be described thus: Half life in rat liver microsomes. In kind it is ADME, Microsome.
The target in data set [2] is cGMP-inhibited 3',5'-cyclic phosphodiesterase 3A (Homo sapiens, UniProt Q14432). The experiment in a line: Inhibition of PDE3A (679 to 1087 residues) (unknown origin) using [3H]-cAMP substrate incubated for 15 mins by liquid scintillation counting method relative to control.
Data set [3] addresses High affinity cGMP-specific 3',5'-cyclic phosphodiesterase 9A (Homo sapiens, UniProt O76083). Nature of the data set: Inhibition of PDE9A2 (181 to 506 residues) (unknown origin) using [3H]-cGMP substrate incubated for 15 mins by liquid scintillation counting method relative to control.
Data set [4] in a line: Half life in Sprague-Dawley rat at 5 mg/kg, po. It is filed as ADME, organism-based. The conditions noted are these: in vivo.
A short description of data set [5]: Oral bioavailability in Sprague-Dawley rat at 5 mg/kg. In kind it is ADME, organism-based. The note with it: in vivo.
Data set [6] can be described thus: Solubility in pH 6 solution by HPLC analysis. It is filed as physicochemical.
For the next data set, the target named is Cytochrome P450 3A4 (Homo sapiens, UniProt P08684). Nature of the data set: Inhibition of human CYP3A4 using testosterone as substrate. In kind it is ADME.
Sequence of Cytochrome P450 3A4 (P08684 whole entry): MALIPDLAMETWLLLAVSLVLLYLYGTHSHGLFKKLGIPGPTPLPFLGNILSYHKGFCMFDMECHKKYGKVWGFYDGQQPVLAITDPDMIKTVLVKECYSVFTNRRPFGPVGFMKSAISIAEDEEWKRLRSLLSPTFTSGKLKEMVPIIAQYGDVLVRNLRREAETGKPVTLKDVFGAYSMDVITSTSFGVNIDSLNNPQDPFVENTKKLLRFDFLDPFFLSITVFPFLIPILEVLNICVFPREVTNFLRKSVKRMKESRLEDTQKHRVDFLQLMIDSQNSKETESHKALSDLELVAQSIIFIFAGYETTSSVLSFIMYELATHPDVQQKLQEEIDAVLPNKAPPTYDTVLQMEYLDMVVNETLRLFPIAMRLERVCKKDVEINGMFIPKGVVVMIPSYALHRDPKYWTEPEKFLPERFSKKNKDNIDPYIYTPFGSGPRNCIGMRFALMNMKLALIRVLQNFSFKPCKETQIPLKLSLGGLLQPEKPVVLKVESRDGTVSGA
The subject of data set [7] is Rattus norvegicus. Nature of the data set: Anti-pulmonary fibrosis activity in Sprague-Dawley rat model of BLM-induced idiopathic pulmonary fibrosis assessed as reduction in enhanced pause at 10 mg/kg, po dosed daily for 28 days by mka noninvasive pulmonary monitoring system based method. It is filed as functional, organism-based.
In data set [8] the test system is Rattus norvegicus. The experiment in a line: Anti-pulmonary fibrosis activity in Sprague-Dawley rat model of BLM-induced idiopathic pulmonary fibrosis assessed as inhibition of alpha-SMA protein expression at 10 mg/kg, po dosed daily for 28 days by immunofluorescence staining analysis. In kind it is functional, organism-based.
The species entered for data set [9] is Homo sapiens. The experiment in a line: Anti-pulmonary fibrosis activity in human HLF assessed as reduction in TGF-beta-induced myofibroblast differentiation by measuring reduction in alpha-SMA protein expression incubated for 48 hrs by immunofluorescence staining analysis. In kind it is functional.
Data set [10] is filed under the species Homo sapiens. Nature of the data set: Anti-pulmonary fibrosis activity in human HLF assessed as reduction in TGF-beta-induced myofibroblast differentiation by measuring reduction in fibronectin protein expression incubated for 48 hrs by Western blot analysis. It is filed as functional.
The species entered for data set [11] is Homo sapiens. The experiment in a line: Anti-pulmonary fibrosis activity in human HLF assessed as reduction in TGF-beta-induced myofibroblast differentiation by measuring reduction in fibronectin protein expression incubated for 48 hrs by immunofluorescence staining analysis. In kind it is functional.

In general, half-life refers to the time in which the quantity being followed falls by half. What is called IC50 is the midpoint of a concentration-inhibition curve. Low values mean greater potency, high ones weaker potency. By bioavailability is commonly meant dose-corrected exposure relative to a reference, in per cent. Read a low bioavailability as little systemic uptake. One may read the solubility as how much of the substance goes into solution per volume. Low values mean a poorly soluble substance, high ones a readily soluble substance.

Values after ≈ are worked out from the molar mass of the structure shown. Active and inactive are the calls of the source. The calls are words filed in the database; no cut-off is given here.

Sequence of cGMP-inhibited 3',5'-cyclic phosphodiesterase 3A (Q14432 whole entry, the tested form may be a part): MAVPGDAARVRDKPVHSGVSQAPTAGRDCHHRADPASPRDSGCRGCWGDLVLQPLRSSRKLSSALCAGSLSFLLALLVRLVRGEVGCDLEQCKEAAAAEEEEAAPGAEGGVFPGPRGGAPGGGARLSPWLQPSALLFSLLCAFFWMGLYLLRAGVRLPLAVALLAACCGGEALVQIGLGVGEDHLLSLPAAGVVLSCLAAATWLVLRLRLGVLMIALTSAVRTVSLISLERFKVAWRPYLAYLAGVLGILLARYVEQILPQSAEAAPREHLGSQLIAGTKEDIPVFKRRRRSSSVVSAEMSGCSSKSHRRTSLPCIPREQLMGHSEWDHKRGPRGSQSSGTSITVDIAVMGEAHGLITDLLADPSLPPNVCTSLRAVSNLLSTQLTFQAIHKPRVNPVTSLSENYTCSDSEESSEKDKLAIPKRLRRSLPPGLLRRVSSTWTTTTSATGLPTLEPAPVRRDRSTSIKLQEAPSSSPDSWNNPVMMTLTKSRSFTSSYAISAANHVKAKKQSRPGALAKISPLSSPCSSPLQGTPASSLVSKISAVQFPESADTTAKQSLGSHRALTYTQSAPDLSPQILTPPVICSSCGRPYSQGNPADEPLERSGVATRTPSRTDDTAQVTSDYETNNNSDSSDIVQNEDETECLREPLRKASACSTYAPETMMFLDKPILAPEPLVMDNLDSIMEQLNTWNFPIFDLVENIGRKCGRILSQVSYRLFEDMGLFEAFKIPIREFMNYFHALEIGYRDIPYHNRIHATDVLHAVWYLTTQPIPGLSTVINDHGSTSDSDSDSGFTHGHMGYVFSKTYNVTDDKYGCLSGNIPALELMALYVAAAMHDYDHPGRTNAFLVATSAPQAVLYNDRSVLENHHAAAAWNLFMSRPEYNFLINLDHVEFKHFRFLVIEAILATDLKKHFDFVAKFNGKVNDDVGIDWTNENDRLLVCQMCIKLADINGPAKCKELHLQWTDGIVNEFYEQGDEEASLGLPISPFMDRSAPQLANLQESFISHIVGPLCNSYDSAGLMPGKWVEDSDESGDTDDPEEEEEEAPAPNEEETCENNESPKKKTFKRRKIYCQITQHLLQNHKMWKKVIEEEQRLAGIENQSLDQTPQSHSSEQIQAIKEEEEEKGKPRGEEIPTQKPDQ
Sequence of High affinity cGMP-specific 3',5'-cyclic phosphodiesterase 9A (O76083 whole entry, the tested form may be a part): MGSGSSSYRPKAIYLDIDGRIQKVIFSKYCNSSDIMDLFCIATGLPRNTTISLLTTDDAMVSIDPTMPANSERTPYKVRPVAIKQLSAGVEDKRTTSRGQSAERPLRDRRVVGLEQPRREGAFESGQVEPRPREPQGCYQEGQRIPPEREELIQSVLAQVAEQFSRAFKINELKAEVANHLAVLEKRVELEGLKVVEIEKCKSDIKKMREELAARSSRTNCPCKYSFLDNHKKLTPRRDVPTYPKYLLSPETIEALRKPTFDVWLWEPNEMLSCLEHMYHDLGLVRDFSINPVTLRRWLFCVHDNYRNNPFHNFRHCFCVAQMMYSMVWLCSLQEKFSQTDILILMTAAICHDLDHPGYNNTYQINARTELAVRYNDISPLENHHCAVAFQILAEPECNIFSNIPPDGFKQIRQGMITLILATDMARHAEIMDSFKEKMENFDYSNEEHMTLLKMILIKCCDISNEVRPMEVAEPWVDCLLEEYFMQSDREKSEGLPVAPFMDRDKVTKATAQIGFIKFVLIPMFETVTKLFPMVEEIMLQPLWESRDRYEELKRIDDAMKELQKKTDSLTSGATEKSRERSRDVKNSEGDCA

For the molecule `C[C@@H](Nc1nc2c(cnn2C(C)(C)C)c(=O)n1Cc1ccc(F)cc1)c1ccc(Cl)cc1`, the half-life is 0.263 to 0.267 h in data set [1] and 3.7 h in data set [4]. The figures for the IC50 (in [2]; in [3]; against Cytochrome P450 3A4) were over 10 µM, over 10 µM and over 25 µM, respectively. In data set [5], the bioavailability stood at 34%. This molecule yielded a solubility in [6] of 0.016 mg/mL (≈ 35.2 µM). The outcome in the data set with Rattus norvegicus [7] and with Rattus norvegicus [8] was Active. Also, the Activity entry in the data set filed under Homo sapiens [9], in the data set listed under Homo sapiens [10] and in the data set listed under Homo sapiens [11] was “Dose-dependent effect” in each case.

(Values after ChEMBL document CHEMBL4610129, “Discovery of Novel Selective and Orally Bioavailable Phosphodiesterase-1 Inhibitors for the Efficient Treatment of Idiopathic Pulmonary Fibrosis” (J Med Chem, 2020).)
